How the values were obtained:
[1] = Stability test in human plasma (LC-MS/MS); assay type: in vitro ADME; conditions: human plasma; for half-life at 1 µM: human, 37 °C
Protocol: Each sample was prepared adding 10 µL of working solution 1 to 100 µL of tested matrix (PBS or human plasma) in micro centrifuge tubes. The obtained solutions correspond to 1 µM of analyte.
After the incubation, the samples were added with 300 µL of ISTD solution and centrifuged (room temperature for 5 min at 10,000 rpm). The supernatants were transferred in auto sampler vials and dried under a gentle stream of nitrogen.
The dried samples were dissolved in 1.0 ml of 10 mM of formic acid in mQ water: acetonitrile 80:20 solution. The obtained sample solutions were analysed by LC-MS/MS methods described in Supplementary material.
For this purpose, a series of experiments were carried out, adding a known amount of analyte in both phosphate buffer solution (PBS) and in human plasma. The samples were analysed by LC-MS/MS method operating in Multiple Reaction Monitoring (MRM) mode[55].
The analyte concentration (1 µM) used during the stability tests is generally smaller than the corresponding Michaelis–Menten constant (KM); therefore, the enzymatic degradation rate is described by a first-order kinetic. Then, by plotting the natural logarithm of the quantitative data versus the incubation time, a linear function can be used and its slope represents the degradation rate (k).

P-gp [2] = molecular target: T1, P-gp (Homo sapiens, UniProt P08183); assay: ATP cell depletion (ATPlite assay) in MDCK-MDR1 cells; assay type: cell-based; conditions: Yes/No
T1 construct: expressed in transfected cells; host or cells: MDCK-MDR1 (Madin-Darby Canine Kidney cells, gift of Prof. P. Borst, NKI-AVL)
Protocol: The MDCK-MDR1 cells were seeded into 96-well microplate in 100 µL of complete medium at a density 20,000 cells per well. The plate was incubated overnight (O/N) in a humidified atmosphere 5% CO2 at 37 °C. The medium was removed and 100 µL of complete medium either alone or containing different concentrations (ranging from 1 to 100 µM) of test compounds was added. The plate was incubated for 2 h in a humidified 5% CO2 atmosphere at 37 °C. 50 µL of mammalian cell lysis solution was added to all wells and the plate shacked for five minutes in an orbital shaker. 50 µL of substrate solution was added to all wells and the plate shacked for five minutes in an orbital shaker. The plate was dark adapted for ten minutes and the luminescence was measured.
(§1) The interaction potency between the designed compounds and P-gp was evaluated by measuring the transport inhibition of the pro-fluorescent probe Calcein-AM, that is a P-gp substrate, in a cell line overexpressing P-gp (MDCK-MDR1)[47]. The P-gp interacting profile was further investigated with two other assays: the Apparent Permeability (Papp) determination (BA/AB) in Caco-2 cell monolayer[48]^,[49], and the ATP cell depletion in the MDCK-MDR1 cell line[50]. Taking into account the results of the combined tests, an interacting compound can be classified as substrate or inhibitor. Papp determination measures the ratio between two fluxes: from the basolateral to apical compartments (BA, representative of passive diffusion) and from the apical to basolateral compartments (AB, representative of active transport). […] In the same manner, if (BA/AB) >2, the compound should probably be classified as a substrate. […] The selectivity of ligands 1–26 was evaluated by detecting their activity towards the other ABC transporters MRP1 and BCRP, by measuring the inhibition of the efflux of Calcein-AM (i.e., also a MRP1 substrate) in cells overexpressing MRP1 (MDCK-MRP1 cells), and the inhibition of the efflux of the fluorescent probe Hoechst 33342 (i.e. a BCRP substrate) in cells overexpressing BCRP (MDCK-BCRP cells), respectively.

P-gp [3] = molecular target: T1, P-gp; assay: Inhibition of Calcein-AM transport in MDCK-MDR1 cells; assay type: cell-based; conditions: Calcein-AM, MDCK-MDR1 cells; mean ± SEM of two experiments
Protocol: These experiments were carried out as previously described by Teodori et al. with minor modifications. Each cell line (30 000 cells per well) was seeded into black CulturePlate 96/wells plate with 100 µL medium and allowed to become confluent overnight. 100 µL of test compounds were solubilised in culture medium and added to monolayers, with final concentrations ranging from 1 nM to 100 µM. 96/Wells plate was incubated for 30 min in a humidified atmosphere 5% CO2 at 37 °C. Calcein-AM was added in 100 µL of Phosphate Buffered Saline (PBS) to yield a final concentration of 2.5 µM and plate was incubated for 30 min in a humidified atmosphere 5% CO2 at 37 °C. Each well was washed 3 times with ice cold PBS. Saline buffer was added to each well and the plate was read with Victor3 (PerkinElmer) at excitation and emission wavelengths of 485 and 535 nm, respectively. In these experimental conditions, Calcein cell accumulation in the absence and in the presence of tested compounds was evaluated and fluorescence basal level was estimated with untreated cells. In treated wells the increase of fluorescence with respect to basal level was measured. EC50 values were determined by fitting the fluorescence increase percentage versus log[dose].
The interaction potency between the designed compounds and P-gp was evaluated by measuring the transport inhibition of the pro-fluorescent probe Calcein-AM, that is a P-gp substrate, in a cell line overexpressing P-gp (MDCK-MDR1)[47]. The P-gp interacting profile was further investigated with two other assays: the Apparent Permeability (Papp) determination (BA/AB) in Caco-2 cell monolayer[48]^,[49], and the ATP cell depletion in the MDCK-MDR1 cell line[50]. […] Papp determination measures the ratio between two fluxes: from the basolateral to apical compartments (BA, representative of passive diffusion) and from the apical to basolateral compartments (AB, representative of active transport). […] In the same manner, if (BA/AB) >2, the compound should probably be classified as a substrate.

[4] = Apparent permeability (Papp) determination (BA/AB) in Caco-2 cell monolayer; assay type: in vitro ADME; conditions: human, Caco-2 monolayer
Protocol: Caco-2 cells were seeded onto a Millicell® assay system (Millipore), where a cell monolayer is set in between a filter cell and a receiver plate, at a density of 10 000 cells/well[46]. The culture medium was replaced every 48 h and the cells kept for 21 days in culture. The Trans Epithelial Electrical Resistance (TEER) of the monolayers was measured daily, before and after the experiment, using an epithelial volt-ohmmeter (Millicell®-ERS). Generally, TEER values greater than 1000 Ω for a 21 days culture, are considered optimal.
After 21 days of Caco-2 cell growth, the medium was removed from filter wells and from the receiver plate, which were filled with fresh HBSS buffer (Invitrogen). This procedure was repeated twice, and the plates were incubated at 37 °C for 30 min. After incubation time, the HBSS buffer was removed and drug solutions and reference compounds were added to the filter well at the concentration of 100 µM, while fresh HBSS was added to the receiver plate. The plates were incubated at 37 °C for 120 min. Afterwards, samples were removed from the apical (filter well) and basolateral (receiver plate) side of the monolayer to measure the permeability.
as §1

T1 sequence (P08183 whole entry): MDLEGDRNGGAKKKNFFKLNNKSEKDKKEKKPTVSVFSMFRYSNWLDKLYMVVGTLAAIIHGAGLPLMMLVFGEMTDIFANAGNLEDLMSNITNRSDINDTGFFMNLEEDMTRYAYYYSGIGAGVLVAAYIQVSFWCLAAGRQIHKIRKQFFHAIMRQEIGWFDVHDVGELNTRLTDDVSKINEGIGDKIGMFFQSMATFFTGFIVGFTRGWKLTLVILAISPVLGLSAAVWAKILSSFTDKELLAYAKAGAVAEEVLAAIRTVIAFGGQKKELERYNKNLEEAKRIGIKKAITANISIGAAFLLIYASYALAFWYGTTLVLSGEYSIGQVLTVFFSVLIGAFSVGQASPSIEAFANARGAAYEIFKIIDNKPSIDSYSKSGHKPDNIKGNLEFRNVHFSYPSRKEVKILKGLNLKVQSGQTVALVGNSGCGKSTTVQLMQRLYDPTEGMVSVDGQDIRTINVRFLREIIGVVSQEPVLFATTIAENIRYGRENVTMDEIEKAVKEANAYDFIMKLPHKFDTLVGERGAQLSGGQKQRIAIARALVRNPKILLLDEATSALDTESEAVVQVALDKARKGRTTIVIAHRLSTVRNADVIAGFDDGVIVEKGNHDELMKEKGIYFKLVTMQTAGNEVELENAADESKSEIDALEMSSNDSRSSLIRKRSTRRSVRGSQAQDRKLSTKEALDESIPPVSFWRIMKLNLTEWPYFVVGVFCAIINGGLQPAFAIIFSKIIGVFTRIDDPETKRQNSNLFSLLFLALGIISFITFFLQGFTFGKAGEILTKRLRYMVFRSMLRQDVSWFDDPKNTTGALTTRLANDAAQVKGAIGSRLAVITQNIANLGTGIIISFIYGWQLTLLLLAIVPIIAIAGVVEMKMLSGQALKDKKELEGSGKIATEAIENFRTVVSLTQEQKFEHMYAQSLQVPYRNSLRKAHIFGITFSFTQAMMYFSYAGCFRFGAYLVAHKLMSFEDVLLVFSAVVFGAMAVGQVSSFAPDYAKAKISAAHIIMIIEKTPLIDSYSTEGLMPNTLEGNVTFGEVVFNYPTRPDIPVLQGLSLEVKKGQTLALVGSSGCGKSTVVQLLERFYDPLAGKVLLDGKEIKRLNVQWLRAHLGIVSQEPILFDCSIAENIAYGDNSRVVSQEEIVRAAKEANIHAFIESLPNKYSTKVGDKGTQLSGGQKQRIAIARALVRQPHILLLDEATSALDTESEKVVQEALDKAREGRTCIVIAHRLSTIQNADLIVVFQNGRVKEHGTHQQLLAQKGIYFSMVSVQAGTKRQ

SMILES	half-life at 1 µM [1]	ATP cell depletion (P-gp [2])	EC50 (P-gp [3])	efflux ratio at 120 min, 100 µM [4]	t1/2 ([1]; reference compound for enzymatic activity of the batch)
COc1cc2c(cc1OC)CN(CCc1ccc(NC(=O)c3cnccn3)cc1)CC2 [Compound 11, N-(4–(2-(6,7-dimethoxy-3,4-dihydroisoquinolin-2(1H)-yl)ethyl)phenyl)pyrazine-2-carboxamide]	≥ 4 h	No	1900 ± 320 nM	4.9	–
COc1ccc2nccc(C(=O)Oc3ccc(CCN4CCc5cc(OC)c(OC)cc5C4)cc3)c2c1 [Compound 26, 4–(2-(6,7-Dimethoxy-3,4-dihydroisoquinolin-2(1H)-yl)ethyl)phenyl 6-methoxyquinoline-4-carboxylate]	2.07 ± 0.45 h	No	1400 ± 260 nM	8.7	–
COc1cc2c(cc1OC)CN(CCc1ccc(OC(=O)c3cccnc3)cc1)CC2 [Compound 22, 4–(2-(6,7-Dimethoxy-3,4-dihydroisoquinolin-2(1H)-yl)ethyl)phenyl nicotinate]	≥ 4 h	No	29400 ± 4980 nM	5	–
CCOC(=O)C(C)c1cccc(C(=O)c2ccccc2)c1 (stereo not drawn) [KEE, Ketoprofen ethyl ester, reference compound]	–	–	–	–	< 2 h
COc1cc2c(cc1OC)CN(CCc1ccc(OC(=O)c3c(OC)cccc3OC)cc1)CC2 [Compound 17, 4–(2-(6,7-Dimethoxy-3,4-dihydroisoquinolin-2(1H)-yl)ethyl)phenyl 2,6-dimethoxybenzoate]	≥ 4 h	No	150 ± 30 nM	6.2	–
COc1ccc(C(=O)Oc2ccc(CCN3CCc4cc(OC)c(OC)cc4C3)cc2)cn1 [Compound 23, 4–(2-(6,7-Dimethoxy-3,4-dihydroisoquinolin-2(1H)-yl)ethyl)phenyl 6-methoxynicotinate]	≥ 4 h	No	9240 ± 1810 nM	5.6	–
COc1ccc(C(=O)Nc2ccc(CCN3CCc4cc(OC)c(OC)cc4C3)cc2)cn1 [Compound 10, N-(4–(2-(6,7-dimethoxy-3,4-dihydroisoquinolin-2(1H)-yl)ethyl)phenyl)-6-methoxynicotinamide]	≥ 4 h	No	2300 ± 440 nM	7.5	–
COc1cc2c(cc1OC)CN(CCc1ccc(NC(=O)c3c(OC)cccc3OC)cc1)CC2 [Compound 4, N-(4–(2-(6,7-dimethoxy-3,4-dihydroisoquinolin-2(1H)-yl)ethyl)phenyl)-2,6-dimethoxybenzamide]	≥ 4 h	No	7200 ± 1390 nM	5.5	–
COc1cc2c(cc1OC)CN(CCc1ccc(NC(=O)c3cccc4ccccc34)cc1)CC2 [Compound 6, N-(4–(2-(6,7-dimethoxy-3,4-dihydroisoquinolin-2(1H)-yl)ethyl)phenyl)-1-naphthamide]	≥ 4 h	No	670 ± 120 nM	3.6	–
COc1cc2c(cc1OC)CN(CCc1ccc(NC(=O)c3cccnc3)cc1)CC2 [Compound 9, N-(4–(2-(6,7-dimethoxy-3,4-dihydroisoquinolin-2(1H)-yl)ethyl)phenyl)nicotinamide]	≥ 4 h	No	6400 ± 1260 nM	7.3	–
COc1cc2c(cc1OC)CN(CCc1ccc(OC(=O)c3cnccn3)cc1)CC2 [Compound 24, 4–(2-(6,7-Dimethoxy-3,4-dihydroisoquinolin-2(1H)-yl)ethyl)phenyl pyrazine-2-carboxylate]	0.7 ± 0.333 h	No	1900 ± 320 nM	4.9	–
COc1cc2c(cc1OC)CN(CCc1ccc(NC(=O)c3ccccc3OC)cc1)CC2 [Compound 2, N-(4–(2-(6,7-dimethoxy-3,4-dihydroisoquinolin-2(1H)-yl)ethyl)phenyl)-2-methoxybenzamide]	≥ 4 h	No	440 ± 82 nM	5.9	–
COc1cc2c(cc1OC)CN(CCc1ccc(NC(=O)c3c(OC)ccc4ccccc34)cc1)CC2 [Compound 7, N-(4–(2-(6,7-dimethoxy-3,4-dihydroisoquinolin-2(1H)-yl)ethyl)phenyl)-2-methoxy-1-naphthamide]	≥ 4 h	No	120 ± 22 nM	11.8	–
COc1cc2c(cc1OC)CN(CCc1ccc(NC(=O)c3cccc4c(=O)c5cccc(OC)c5[nH]c34)cc1)CC2 [elacridar, reference compound]	–	Yes^g	–	–	–
COc1ccc2nccc(C(=O)Nc3ccc(CCN4CCc5cc(OC)c(OC)cc5C4)cc3)c2c1 [Compound 13, N-(4–(2-(6,7-dimethoxy-3,4-dihydroisoquinolin-2(1H)-yl)ethyl)phenyl)-6-methoxyquinoline-4-carboxamide]	≥ 4 h	No	660 ± 130 nM	6.5	–
